These results are taken from paper PMC6386767, “Characterization of recombinant fructose-1,6-bisphosphatase gene mutations: evidence of inhibition/activation of FBPase protein by gene mutation” (Bioscience Reports, 2019).

Residue numbers refer to the chain shown, from its start.

For one test, the target named is T1, pig kidney FBPase Y113A (Sus scrofa, UniProt P00636, Y114A).
T1 construct: His6 (C); made in house; host or cells: Escherichia coli BL21 (DE3)
T1 sequence (P00636 1-338 Y114A): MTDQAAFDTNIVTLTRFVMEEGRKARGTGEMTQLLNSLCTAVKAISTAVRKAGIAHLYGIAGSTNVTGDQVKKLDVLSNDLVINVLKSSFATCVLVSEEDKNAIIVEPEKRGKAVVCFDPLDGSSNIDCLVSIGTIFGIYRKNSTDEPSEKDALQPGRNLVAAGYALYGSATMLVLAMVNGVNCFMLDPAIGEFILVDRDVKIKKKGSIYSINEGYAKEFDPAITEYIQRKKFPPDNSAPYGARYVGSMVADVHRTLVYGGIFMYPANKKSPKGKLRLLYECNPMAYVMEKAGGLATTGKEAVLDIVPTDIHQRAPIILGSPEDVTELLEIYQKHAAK
Kind of test: Malachite Green kinetic assay, Y113A mutant. The settings on record: enzyme Y113A vs WT. Type of test: biochemical. As to the method: (§1) For the kinetic assay, a standard curve was obtained from an ammonium molybdate Malachite Green inorganic phosphate assay (OD660 nm). The purified FBPase protein was dialyzed ×3 in 50 mM Tris buffer at pH 7.5 at 4°C. For enzyme concentration, absorbency values were recorded for all five mutant proteins using spectrophotometer readings at OD280 nm. To quantitate enzyme concentration, the enzymes were calculated based on the quantity of micrograms per microliter (µg/µl) present. Final concentration of WT and mutant enzymes was between 2.5 and 5.0 µg/µl. Using a colorimetric assay as described below, specific activity (SA) was determined. At last, all kinetic and binding assays described below were performed in 50 mM Tris pH 7.5.
(§2) Kinetic assays were performed for WT and mutant enzymes to identify functional differences between the WT enzyme and the mutants. […] Readings recorded at OD660 nm for each enzyme were applied to the standard curve equation. Micromoles of inorganic phosphate were calculated to determine the SA of mutant enzymes.
(§3) For each clone, the kinetic assay was performed in duplicates of triplicates. Malachite Geen was used to detect inorganic phosphate. Two separate clones were processed independently of the same mutant. All kinetic data were fit to symmetric sigmoidal curve using Origin software based on methods previously described [[27–29]]. More specifically, for kinetic parameters established via curve fitting (shown in Tables 1–3; and in Figure 5A,B), the equation y = d + (a − d)/1 + (x/c)^b was used where ‘x’ is represented by apparent Michelis constant (Km) when y = Vmax. […] P-values were significant at <0.001 and represent a comparison with the WT enzyme.

Another test deals with T2, pig kidney FBPase K112A (Sus scrofa, UniProt P00636, K113A).
T2 construct: His6 (C); made in house; host or cells: Escherichia coli BL21 (DE3)
T2 sequence (P00636 1-338 K113A): T1 sequence (P00636 1-338 Y114A) with K113A, A114Y
The test can be described thus: Malachite Green kinetic assay, K112A mutant. In kind it is biochemical. The settings on record: enzyme K112A vs WT. On the procedure: as §1, §2, §3

Turning to `O=C(COP(=O)(O)O)[C@@H](O)[C@H](O)[C@H](O)COP(=O)(O)O` [FBP, fructose-1,6-bisphosphate], the “greater binding to the FBP substrate compared with WT” value at pig kidney FBPase Y113A and at pig kidney FBPase K112A was 2 × in each case.
